Measured values published in the NIST ThermoML archive (doi:10.1021/je700512a).
± gives the expanded uncertainty stated by the source.

Settings: Liquid, Ebulliometric method (Recirculating still)

| Compound | vapor or sublimation pressure (288.15 K) [kPa] | vapor or sublimation pressure (298.15 K) [kPa] | vapor or sublimation pressure (308.15 K) [kPa] |
| --- | --- | --- | --- |
| O [water] | 1.706 ± 0.04 | 3.172 ± 0.047 | 5.556 ± 0.055 |
| C1COCCO1 [1,4-dioxane] | 2.703 ± 0.053 | 4.975 ± 0.061 | 8.119 ± 0.068 |
